Reference: US10098883B2, “(Aza)pyridopyrazolopyrimidinones and indazolopyrimidinones and their use” (BAYER PHARMA AKTIENGESELLSCHAFT, priority 2013, dated 2018)
Where a name gives a salt, the structure may show the parent alone.

system: clot lysis (fibrinolysis) in human citrated plasma, tPA-induced; assay: Plasma-based clot lysis assay (5%); format: biochemical; details: diluted human citrated plasma (platelet-poor, 5%), fibrinogen 3 μM, CaCl2 10 mM, tPA 0.2 nM, 37° C., OD 405 nm
Experimental: B-2. Plasma-based Clot Lysis Assay (5%)
The clot-lysis test system configures the kinetics of clot formation and degradation in vitro and allows quantifying modulation of the process by selected test compounds.
The test compounds were dissolved in 1% acetic acid and further complemented with an equal volume of DMSO. The resulting stock solutions were serially diluted in 0.5% acetic acid/50% DMSO. 1 μL aliquots of these solutions were placed into 384 well microplates (Greiner, black, transparent bottom), followed by 30 μL of diluted human citrated plasma (platelet-poor, final concentration: 5%; supplemented with fibrinogen, final concentration: 3 μM; dilution buffer: 20 mM HEPES, 150 mM NaCl, 0.01% Brij (pH 7)). The reactions were started by addition of […] of CaCl2 (final concentration: 10 mM), and tPA (tissue plasminogen activator, final concentration: 0.2 nM) in dilution buffer, followed by an additional volume of 20 μL dilution buffer for improved mixing. The reactions were incubated at 37° C. Clot formation and degradation was monitored spectrophotometrically by kinetic optical density measurements at 405 nm. IC50 values were determined by comparing the resulting time courses with the time course of a blank control reaction.

Structure (SMILES)	IC50
CC1CC(c2cc(=O)[nH]c3c4c(Cl)cccc4nn23)CCN1 (single isomer, unassigned; (+)) [Example 101, (+)-Cis-10-Chloro-4-(2-methylpiperidin-4-yl)pyrimido[1,2-b]indazol-2(1H)-one hydrochloride [Enantiomerically Pure Cis-Isomer]]	0.035 µM
O=c1cc(C2CCNCC2)n2nc3ccccc3c2[nH]1 [Example 1, 4-(Piperidin-4-yl)pyrimido[1,2-b]indazol-2(1H)-one hydrochloride]	0.051 µM
O=c1cc(C2CCNCC2)n2nc3ccc(C(F)(F)F)cc3c2[nH]1 [Example 2, 4-(Piperidin-4-yl)-9-(trifluoromethyl)pyrimido[1,2-b]indazol-2(1H)-one hydrochloride]	0.03 µM
O=c1cc(C2CCNCC2)n2nc3cccc(F)c3c2[nH]1 [Example 4, 10-Fluoro-4-(piperidin-4-yl)pyrimido[1,2-b]indazol-2(1H)-one hydrochloride]	0.028 µM
O=c1cc(C2CCNCC2)n2nc3ccc(Cl)cc3c2[nH]1 [Example 5, 9-Chloro-4-(piperidin-4-yl)pyrimido[1,2-b]indazol-2(1H)-one hydrochloride]	0.037 µM
O=c1cc(C2CCNCC2)n2nc3c(Cl)cc(Cl)cc3c2[nH]1 [Example 6, 7,9-Dichloro-4-(piperidin-4-yl)pyrimido[1,2-b]indazol-2(1H)-one hydrochloride]	0.094 µM
O=c1cc(C2CCNCC2)n2nc3ccc(F)cc3c2[nH]1 [Example 7, 9-Fluoro-4-(piperidin-4-yl)pyrimido[1,2-b]indazol-2(1H)-one hydrochloride]	0.095 µM
COc1cccc2nn3c(C4CCNCC4)cc(=O)[nH]c3c12 [Example 8, 10-Methoxy-4-(piperidin-4-yl)pyrimido[1,2-b]indazol-2(1H)-one hydrochloride]	0.046 µM
O=c1cc(C2CCNCC2)n2nc3cccnc3c2[nH]1 [Example 9, 7-(Piperidin-4-yl)pyrido[3′,2′:3,4]pyrazolo[1,5-a]pyrimidin-9(10H)-one hydrochloride]	0.036 µM
O=c1cc(C2CCNCC2)n2nc3cc(C(F)(F)F)ccc3c2[nH]1 [Example 11, 4-(Piperidin-4-yl)-8-(trifluoromethyl)pyrimido[1,2-b]indazol-2(1H)-one hydrochloride]	0.026 µM
O=c1cc(C2CCNCC2)n2nc3cccc(C(F)(F)F)c3c2[nH]1 [Example 12, 4-(Piperidin-4-yl)-10-(trifluoromethyl)pyrimido[1,2-b]indazol-2(1H)-one hydrochloride]	0.032 µM
CC(C)(C)c1ccc2c(n1)nn1c(C3CCNCC3)cc(=O)[nH]c21 [Example 13, 8-tert-Butyl-4-(piperidin-4-yl)pyrido[2′,3′:3,4]pyrazolo[1,5-a]pyrimidin-2(1H)-one hydrochloride]	0.031 µM
Cc1cc(C(F)(F)F)nc2nn3c(C4CCNCC4)cc(=O)[nH]c3c12 [Example 14, 10-Methyl-4-(piperidin-4-yl)-8-(trifluoromethyl)pyrido[2′,3′:3,4]pyrazolo[1,5-a]pyrimidin-2(1H)-one hydrochloride]	0.05 µM
Cc1ccc2nn3c(C4CCNCC4)cc(=O)[nH]c3c2c1 [Example 15, 9-Methyl-4-(piperidin-4-yl)pyrimido[1,2-b]indazol-2(1H)-one hydrochloride]	0.048 µM
Nc1ccc2c(c1)nn1c(C3CCNCC3)cc(=O)[nH]c21 [Example 16, 8-Amino-4-(piperidin-4-yl)pyrimido[1,2-b]indazol-2(1H)-one hydrochloride]	0.034 µM
Cc1nnc2nn3c(C4CCNCC4)cc(=O)[nH]c3c2c1C [Example 17, 3,4-Dimethyl-8-(piperidin-4-yl)pyrimido[1′,2′:1,5]pyrazolo[3,4-c]pyridazin-6(5H)-one hydrochloride]	0.022 µM
O=c1cc(C2CCNCC2)n2nc3cc(F)ccc3c2[nH]1 [Example 18, 8-Fluoro-4-(piperidin-4-yl)pyrimido[1,2-b]indazol-2(1H)-one hydrochloride]	0.038 µM
O=c1cc(C2CCNCC2)n2nc3ccc(Br)cc3c2[nH]1 [Example 19, 9-Bromo-4-(piperidin-4-yl)pyrimido[1,2-b]indazol-2(1H)-one hydrochloride]	0.026 µM

Structure (SMILES)	IC50
O=c1cc(C2CCNCC2)n2nc3cccc(I)c3c2[nH]1 [Example 20, 10-Iodo-4-(piperidin-4-yl)pyrimido[1,2-b]indazol-2(1H)-one hydrochloride]	0.022 µM
O=c1cc(C2CCNCC2)n2nc3cc(Br)ccc3c2[nH]1 [Example 21, 8-Bromo-4-(piperidin-4-yl)pyrimido[1,2-b]indazol-2(1H)-one hydrochloride]	0.03 µM
O=c1cc(C2CCNCC2)n2nc3c(Cl)cccc3c2[nH]1 [Example 22, 7-Chloro-4-(piperidin-4-yl)pyrimido[1,2-b]indazol-2(1H)-one hydrochloride]	0.026 µM
O=c1cc(C2CCNCC2)n2nc3cc(F)cc(F)c3c2[nH]1 [Example 23, 8,10-Difluoro-4-(piperidin-4-yl)pyrimido[1,2-b]indazol-2(1H)-one hydrochloride]	0.028 µM
Cc1ccc2c(n1)nn1c(C3CCNCC3)cc(=O)[nH]c21 [Example 24, 8-Methyl-4-(piperidin-4-yl)pyrido[2′,3′:3,4]pyrazolo[1,5-a]pyrimidin-2(1H)-one hydrochloride]	0.034 µM
CCOc1cccc2nn3c(C4CCNCC4)cc(=O)[nH]c3c12 [Example 26, 10-Ethoxy-4-(piperidin-4-yl)pyrimido[1,2-b]indazol-2(1H)-one hydrochloride]	0.029 µM
O=c1cc(C2CCNCC2)n2nc3c(Br)cncc3c2[nH]1 [Example 27, 7-Bromo-4-(piperidin-4-yl)pyrido[4′,3′:3,4]pyrazolo[1,5-a]pyrimidin-2(1H)-one hydrochloride]	0.013 µM
O=c1cc(C2CCNCC2)n2nc3c(F)cccc3c2[nH]1 [Example 28, 7-Fluoro-4-(piperidin-4-yl)pyrimido[1,2-b]indazol-2(1H)-one hydrochloride]	0.033 µM
O=c1cc(C2CCNCC2)n2nc3cnccc3c2[nH]1 [Example 29, 4-(Piperidin-4-yl)pyrido[3′,4′:3,4]pyrazolo[1,5-a]pyrimidin-2(1H)-one hydrochloride]	0.028 µM
O=c1cc(C2CCNCC2)n2nc3c(C(F)(F)F)cccc3c2[nH]1 [Example 30, 4-(Piperidin-4-yl)-7-(trifluoromethyl)pyrimido[1,2-b]indazol-2(1H)-one hydrochloride]	0.046 µM
O=c1cc(C2CCNCC2)n2nc3cc(C(F)(F)F)cc([N+](=O)[O-])c3c2[nH]1 [Example 31, 10-Nitro-4-(piperidin-4-yl)-8-(trifluoromethyl)pyrimido[1,2-b]indazol-2(1H)-one hydrochloride]	0.097 µM
Cc1cc(C)c2c(n1)nn1c(C3CCNCC3)cc(=O)[nH]c21 [Example 32, 8,10-Dimethyl-4-(piperidin-4-yl)pyrido[2′,3′:3,4]pyrazolo[1,5-a]pyrimidin-2(1H)-one hydrochloride]	0.21 µM
Cc1cccc2nn3c(C4CCNCC4)cc(=O)[nH]c3c12 [Example 36, 10-Methyl-4-(piperidin-4-yl)pyrimido[1,2-b]indazol-2(1H)-one hydrochloride]	0.018 µM
O=c1cc(C2CCNCC2)n2nc3cccc(OC(F)(F)F)c3c2[nH]1 [Example 37, 4-(Piperidin-4-yl)-10-(trifluoromethoxy)pyrimido[1,2-b]indazol-2(1H)-one hydrochloride]	0.044 µM
O=c1cc(C2CCNCC2)n2nc3nccnc3c2[nH]1 [Example 38, 7-(Piperidin-4-yl)pyrazino[2′,3′:3,4]pyrazolo[1,5-a]pyrimidin-9(10H)-one hydrochloride]	0.06 µM
O=c1cc(C2CCNCC2)n2nc3cc(Cl)ccc3c2[nH]1 [Example 39, 8-Chloro-4-(piperidin-4-yl)pyrimido[1,2-b]indazol-2(1H)-one hydrochloride]	0.024 µM
CN(C)c1ccnc2nn3c(C4CCNCC4)cc(=O)[nH]c3c12 [Example 40, 10-(Dimethylamino)-4-(piperidin-4-yl)pyrido[2′,3′:3,4]pyrazolo[1,5-a]pyrimidin-2(1H)-one hydrochloride]	0.038 µM
O=c1cc(C2CCNCC2)n2nc3cc(C(F)(F)F)cc(Cl)c3c2[nH]1 [Example 41, 10-Chloro-4-(piperidin-4-yl)-8-(trifluoromethyl)pyrimido[1,2-b]indazol-2(1H)-one hydrochloride]	0.023 µM

same assay, conditions: diluted human citrated plasma (platelet-poor, 5%), fibrinogen 3 μM, CaCl2 10 mM, tPA 0.2 nM, 37° C., OD 405 nm; hydrochloride

Structure (SMILES)	IC50
O=c1cc(C2CCNCC2)n2nc3cccc(Cl)c3c2[nH]1 [Example 3, 10-Chloro-4-(piperidin-4-yl)pyrimido[1,2-b]indazol-2(1H)-one hydrochloride]	0.028 µM
O=c1cc(C2CCNCC2)n2nc3cccc(Br)c3c2[nH]1 [Example 10, 10-Bromo-4-(piperidin-4-yl)pyrimido[1,2-b]indazol-2(1H)-one hydrochloride]	0.034 µM

same assay, conditions: diluted human citrated plasma (platelet-poor, 5%), fibrinogen 3 μM, CaCl2 10 mM, tPA 0.2 nM, 37° C., OD 405 nm; trifluoroacetate

Structure (SMILES)	IC50
N#Cc1cccc2nn3c(C4CCNCC4)cc(=O)[nH]c3c12 [Example 33, 2-Oxo-4-(piperidin-4-yl)-1,2-dihydropyrimido[1,2-b]indazole-10-carbonitrile trifluoroacetate]	0.021 µM
